Test results published in US20060211698A1, “Bicyclic heteroaryl derivatives for treating viruses” (Genelabs, Inc., priority 2005, published 2006).

Target: T1, HCV-NS5b (Hepatitis C virus genotype 1b, UniProt Q9WMX2)
T1 construct: The cloned fragment was missing the C terminus 21 amino acid residues; (His)6 (C); made in house; host or cells: XL-1 cells (E. coli)
Experiment: HCV-NS5b Enzyme Assay
Type: biochemical
Conditions: 1 μM test compound; incorporation of [3H]-UTP, 37° C., 2 hours
From the text: The coding sequence of NS5b protein was cloned by PCR from pFKI389luc/NS3-3′/ET as described by Lohmann, V., et al. (1999) Science 285, 110-113 using the following primers: • […] (SEQ. ID. NO. 1) • […] (SEQ. ID. NO. 2)
The cloned fragment was missing the C terminus 21 amino acid residues. The cloned fragment is inserted into an IPTG-inducible expression plasmid that provides an epitope tag (His)6 at the carboxy terminus of the protein.
The recombinant enzyme was expressed in XL-1 cells and after induction of expression, the protein was purified using affinity chromatography on a nickel-NTA column. Storage condition is 10 mM Tris-HCl pH 7.5, 50 mM NaCl, 0.1 mM EDTA, 1 mM DTT, 20% glycerol at −20° C.
The polymerase activity was assayed by measuring incorporation of radiolabeled UTP into a RNA product using a biotinylated, heteropolymeric template, which includes a portion of the HCV genome. Typically, the assay mixture […] contains 10 mM Tris-HCl (pH 7.5), 5 mM MgCl2, 0.2 mM EDTA, 10 mM KCl, 1 unit/μL RNAsin. 1 mM DTT, 10 μM each of NTP, including [^3H]-UTP, and 10 ng/μL biotinylated heteropolymeric template. 20× test compound in 2 μl's was then added as a 100% DMSO solution to achieve a final DMSO concentration of 5%. For IC50 determination a 10-point dose response was used. The compounds were serial diluted 2-fold […]. Typically for IC50's, compounds were tested starting at 50 uM or 2 μm depending on the potency. Reactions were started with addition of 10×NS5B in 4 μl's and allowed to incubate at 37° C. for 2 hours. Reactions were quenched with 8 μL of 100 mM EDTA and reaction mixtures (30 μL) were transferred to streptavidin-coated scintillation proximity microtiter plates (FlashPlates) and incubated at 4° C. overnight. Incorporation of radioactivity was determined by scintillation counting (cpm). The % Inhibition at a particular concentration was determined using the following equation, % Inhibition=100−[100*(cpm with inhibitor−bg)/(cpm with no inhibitor−bg)] where bg was the background with no enzyme.

| SMILES | inhibition at 1 µM [%] |
| --- | --- |
| Cc1ccc(-c2ccc3cc(-c4c(C5CCCCC5)c5ccc(C(=O)O)cc5n4CC(=O)N4CCOCC4)ccc3n2)cc1 [Compound 252, 3-Cyclohexyl-1-(2-morpholin-4-yl-2-oxo-ethyl)-2-(2-p-tolyl-quinolin-6-yl)-1H-indole-6-carboxylic acid] | 95 |
| COc1ccc(-c2ccc3cc(-c4c(C5CCCCC5)c5ccc(C(=O)O)cc5n4CC(=O)N4CCOCC4)ccc3n2)c(F)c1 [Compound 257, 3-Cyclohexyl-2-[2-(2-fluoro-4-methoxy-phenyl)-quinolin-6-yl]-1-(2-morpholin-4-yl-2-oxo-ethyl)-1H-indole-6-carboxylic acid] | 98.6 |
| O=C(O)c1ccc2c(C3CCCCC3)c(-c3ccc4nc(-c5ccccc5Cl)ccc4c3)n(CC(=O)N3CCOCC3)c2c1 [Compound 276, 2-[2-(2-Chloro-phenyl)-quinolin-6-yl]-3-cyclohexyl-1-(2-morpholin-4-yl-2-oxo-ethyl)-1H-indole-6-carboxylic acid] | 97.6 |
| Cc1cccc(-c2ccc(-c3c(C4CCCCC4)c4ccc(C(=O)O)cc4n3CC(=O)N3CCOCC3)cc2)c1 [Compound 312, 3-Cyclohexyl-2-(3′-methyl-biphenyl-4-yl)-1-(2-morpholin-4-yl-2-oxo-ethyl)-1H-indole-6-carboxylic acid] | 99.5 |
| Cc1nc(C)c(-c2ccc3cc(-c4c(C5CCCCC5)c5ccc(C(=O)O)cc5n4CC(=O)N4CCC(N(C)C)CC4)ccc3n2)s1 [Compound 274, 3-Cyclohexyl-1-[2-(4-dimethylamino-piperidin-1-yl)-2-oxo-ethyl]-2-[2-(2,4-dimethyl-thiazol-5-yl)-quinolin-6-yl]-1H-indole-6-carboxylic acid] | 96 |
| Cc1ccccc1-c1ccc(-c2c(C3CCCCC3)c3ccc(C(=O)O)cc3n2CC(=O)N2CCOCC2)cc1 [Compound 313, 3-Cyclohexyl-2-(2′-methyl-biphenyl-4-yl)-1-(2-morpholin-4-yl-2-oxo-ethyl)-1H-indole-6-carboxylic acid] | 99.6 |
| COc1ccc(F)c(-c2ccc3cc(-c4c(C5CCCCC5)c5ccc(C(=O)O)cc5n4CC(=O)N4CCOCC4)ccc3n2)c1 [Compound 270, 3-Cyclohexyl-2-[2-(2-fluoro-5-methoxy-phenyl)-quinolin-6-yl]-1-(2-morpholin-4-yl-2-oxo-ethyl)-1H-indole-6-carboxylic acid] | 95 |
| O=C(O)c1ccc2c(C3CCCCC3)c(-c3ccc(-c4cccnc4F)cc3)n(CC(=O)N3CCOCC3)c2c1 [Compound 303, 3-Cyclohexyl-2-[4-(2-fluoro-pyridin-3-yl)-phenyl]-1-(2-morpholin-4-yl-2-oxo-ethyl)-1H-indole-6-carboxylic acid] | 98 |
| Cc1nc(C)c(-c2ccc3cc(-c4c(C5CCCCC5)c5ccc(C(=O)NCCC#N)cc5n4CC(=O)N4CCOCC4)ccc3n2)s1 [Compound 242, 3-Cyclohexyl-2-[2-(2,4-dimethyl-thiazol-5-yl)-quinolin-6-yl]-1-(2-morpholin-4-yl-2-oxo-ethyl)-1H-indole-6-carboxylic acid (2-cyano-ethyl)-amide] | 63.6 |
| NC(=O)c1cc(-c2ccc3cc(-c4c(C5CCCCC5)c5ccc(C(=O)O)cc5n4CC(=O)O)ccc3n2)ccc1O [Compound 208, 1-carboxylmethyl-2-[2-(3-Carbamoyl-4-hydroxy-phenyl)-quinolin-6-yl]-3-cyclohexyl-1H-indole-6-carboxylic acid] | 84.5 |
| COc1ccc(-c2ccc3cc(-c4c(C5CCCCC5)c5ccc(C(=O)O)cc5n4CC(=O)N4CCOCC4)ccc3n2)c(OC)c1OC [Compound 272, 3-Cyclohexyl-1-(2-morpholin-4-yl-2-oxo-ethyl)-2-[2-(2,3,4-trimethoxy-phenyl)-quinolin-6-yl]-1H-indole-6-carboxylic acid] | 101 |
| O=C(O)c1ccc2c(C3CCCCC3)c(-c3ccc(-c4ccccc4)cc3)n(CC(=O)N3CCOCC3)c2c1 [Compound 332, 2-Biphenyl-4-yl-3-cyclohexyl-1-(2-morpholin-4-yl-2-oxo-ethyl)-1H-indole-6-carboxylic acid] | 100 |
| O=C(O)c1ccc2c(C3CCCCC3)c(-c3ccc4nc(-c5cccc(C(F)(F)F)c5)ccc4c3)n(CC(=O)N3CCOCC3)c2c1 [Compound 247, 3-Cyclohexyl-1-(2-morpholin-4-yl-2-oxo-ethyl)-2-[2-(3-trifluoromethyl-phenyl)-quinolin-6-yl]-1H-indole-6-carboxylic acid] | 98.4 |
| Cc1nc(C)c(-c2ccc3cc(-c4c(C5CCCCC5)c5ccc(C(=O)O)cc5n4CC(=O)N4CCOCC4)cnc3n2)s1 [Compound 319, 3-Cyclohexyl-2-[7-(2,4-dimethyl-thiazol-5-yl)-[1,8]naphthyridin-3-yl]-1-(2-morpholin-4-yl-2-oxo-ethyl)-1H-indole-6-carboxylic acid] | 74.3 |
| Cc1nccnc1-c1ccc2cc(-c3c(C4CCCCC4)c4ccc(C(=O)O)cc4n3CC(=O)N3CCOCC3)ccc2n1 [Compound 268, 3-Cyclohexyl-2-[2-(3-methyl-pyrazin-2-yl)-quinolin-6-yl]-1-(2-morpholin-4-yl-2-oxo-ethyl)-1H-indole-6-carboxylic acid] | 96.1 |
| Cc1nc(C)c(-c2ccc3cc(-c4c(C5CCCCC5)c5ccc(C(=O)O)cc5n4Cc4ccccc4)ccc3n2)s1 [Compound 287, 1-Benzyl-3-cyclohexyl-2-[2-(2,4-dimethyl-thiazol-5-yl)-quinolin-6-yl]-1H-indole-6-carboxylic acid] | 95.2 |
| Cc1nc(C)c(-c2ccc3cc(-c4c(C5CCCCC5)c5ccc(C(=O)O)cc5n4CCN4CCOCC4)ccc3n2)s1 [Compound 290, 3-Cyclohexyl-2-[2-(2,4-dimethyl-thiazol-5-yl)-quinolin-6-yl]-1-(2-morpholin-4-yl-ethyl)-1H-indole-6-carboxylic acid] | 79.1 |
| Cc1nc(C)c(-c2ccc3cc(-c4[nH]c5cc(C(=O)O)ccc5c4C4CCCCC4)ccc3n2)s1 [Compound 333, 3-Cyclohexyl-2-[2-(2,4-dimethyl-thiazol-5-yl)-quinolin-6-yl]-1H-indole-6-carboxylic acid] | 95.1 |
| COc1ccc(-c2ccc(Cl)cc2)c(-c2ccc3cc(-c4c(C5CCCCC5)c5ccc(C(=O)O)cc5n4CC(=O)N4CCNCC4)ccc3n2)c1 [Compound 204, 1-[N-piperazinylcarbonylmethyl]-2-[2-(4′-chloro-4-methoxy-biphen-2-yl)-quinolin-6-yl]-3-cyclohexyl-1H-indole-6-carboxylic acid] | 95.9 |
| O=C(O)c1ccc2c(C3CCCCC3)c(-c3ccc4nc(-c5cccc(F)c5)ccc4c3)n(CC(=O)N3CCOCC3)c2c1 [Compound 261, 3-Cyclohexyl-2-[2-(3-fluoro-phenyl)-quinolin-6-yl]-1-(2-morpholin-4-yl-2-oxo-ethyl)-1H-indole-6-carboxylic acid] | 97.1 |
| Cc1cc(-c2ccc3cc(-c4c(C5CCCCC5)c5ccc(C(=O)O)cc5n4CC(=O)N4CCOCC4)ccc3n2)c(C)s1 [Compound 258, 3-Cyclohexyl-2-[2-(2,5-dimethyl-thiophen-3-yl)-quinolin-6-yl]-1-(2-morpholin-4-yl-2-oxo-ethyl)-1H-indole-6-carboxylic acid] | 97.4 |
| COc1ccncc1-c1ccc(-c2c(C3CCCCC3)c3ccc(C(=O)O)cc3n2CC(=O)O)cc1 [Compound 308, 1-Carboxymethyl-3-cyclohexyl-2-[4-(4-methoxy-pyridin-3-yl)-phenyl]-1H-indole-6-carboxylic acid] | 97.5 |
| Cc1nc(C)c(-c2ccc3cc(-c4c(C5CCCCC5)c5ccc(C(=O)O)cc5n4CC(=O)N4CCOCC4)ccc3n2)o1 [Compound 260, 3-Cyclohexyl-2-[2-(2,4-dimethyl-oxazol-5-yl)-quinolin-6-yl]-1-(2-morpholin-4-yl-2-oxo-ethyl)-1H-indole-6-carboxylic acid] | 96 |
| Cc1nc(C)c(-c2ccc3cc(-c4c(C5CCCCC5)c5ccc(C(=O)O)cc5n4CC(=O)NCCN4CCOCC4)ccc3n2)s1 [Compound 237, 3-Cyclohexyl-2-[2-(2,4-dimethyl-thiazol-5-yl)-quinolin-6-yl]-1-[(2-morpholin-4-yl-ethylcarbamoyl)-methyl]-1H-indole-6-carboxylic acid] | 94.7 |
| CN(C)c1ccc(-c2ccc(-c3c(C4CCCCC4)c4ccc(C(=O)O)cc4n3CC(=O)N3CCOCC3)cc2)cc1 [Compound 299, 3-Cyclohexyl-2-(4′-dimethylamino-biphenyl-4-yl)-1-(2-morpholin-4-yl-2-oxo-ethyl)-1H-indole-6-carboxylic acid] | 94.9 |
